# PubChem BioAssay (NCI)
#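 Exposure lasted 48 hours, with cells grown in 96-well plates and compounds tested at five concentrations. The concentration for 50% growth inhibition is given as GI50. TGI marks complete inhibition of growth.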
# Legend:
# Assay in all cases: NCI-60 cell line screen, 48 h
# OVCAR-8 ovarian = test system: OVCAR-8 ovarian
# UO-31 renal = test system: UO-31 renal
# MOLT-4 leukemia = test system: MOLT-4 leukemia
# A549 NSCLC = test system: A549 NSCLC
# DU-145 prostate = test system: DU-145 prostate
# CAKI-1 renal = test system: CAKI-1 renal
# OVCAR-5 ovarian = test system: OVCAR-5 ovarian
# A498 renal = test system: A498 renal
# HS 578T breast = test system: HS 578T breast
# HL-60(TB) leukemia = test system: HL-60(TB) leukemia
# U251 CNS = test system: U251 CNS
# NCI/ADR-RES ovarian = test system: NCI/ADR-RES ovarian
# LOX IMVI melanoma = test system: LOX IMVI melanoma
# M14 melanoma = test system: M14 melanoma
# MALME-3M melanoma = test system: MALME-3M melanoma
# SK-MEL-5 melanoma = test system: SK-MEL-5 melanoma
# SK-MEL-28 melanoma = test system: SK-MEL-28 melanoma
# COLO 205 colon = test system: COLO 205 colon
# OVCAR-3 ovarian = test system: OVCAR-3 ovarian
# EKVX NSCLC = test system: EKVX NSCLC
# BT-549 breast = test system: BT-549 breast
# HCT-116 colon = test system: HCT-116 colon
# MDA-MB-435 = test system: MDA-MB-435
# MDA-MB-231 breast = test system: MDA-MB-231 breast
# RXF 393 renal = test system: RXF 393 renal
# OVCAR-4 ovarian = test system: OVCAR-4 ovarian
# SK-MEL-2 melanoma = test system: SK-MEL-2 melanoma
# SNB-75 CNS = test system: SNB-75 CNS
# NCI-H226 lung = test system: NCI-H226 lung
# HCC-2998 colon = test system: HCC-2998 colon
# SF-539 CNS = test system: SF-539 CNS
# T-47D breast = test system: T-47D breast
# NCI-H23 lung = test system: NCI-H23 lung
# HCT-15 colon = test system: HCT-15 colon
# SF-268 CNS = test system: SF-268 CNS
# TK-10 renal = test system: TK-10 renal
# SF-295 CNS = test system: SF-295 CNS
# NCI-H460 lung = test system: NCI-H460 lung
# HOP-62 NSCLC = test system: HOP-62 NSCLC
# SW-620 colon = test system: SW-620 colon
# UACC-62 melanoma = test system: UACC-62 melanoma
# SN12C renal = test system: SN12C renal
# HT29 colon = test system: HT29 colon
# NCI-H522 lung = test system: NCI-H522 lung
# 786-0 renal = test system: 786-0 renal
# KM12 colon = test system: KM12 colon
# UACC-257 melanoma = test system: UACC-257 melanoma
# MCF7 breast = test system: MCF7 breast
# SNB-19 CNS = test system: SNB-19 CNS
# SK-OV-3 ovarian = test system: SK-OV-3 ovarian
# ACHN renal = test system: ACHN renal
smiles,measurement,setting,value
OC(c1cc2cc(Cl)c(Cl)cc2c2cc(C(F)(F)F)ccc12)C1CCCCN1 (stereo not given),GI50,OVCAR-8 ovarian,1.67 µM
same,TGI,OVCAR-8 ovarian,3.21 µM
same,GI50,UO-31 renal,1.52 µM
same,TGI,UO-31 renal,3.16 µM
same,GI50,MOLT-4 leukemia,1.59 µM
same,TGI,MOLT-4 leukemia,3.32 µM
same,GI50,A549 NSCLC,1.68 µM
same,TGI,A549 NSCLC,3.18 µM
same,GI50,DU-145 prostate,1.94 µM
same,TGI,DU-145 prostate,3.36 µM
same,GI50,CAKI-1 renal,2 µM
same,TGI,CAKI-1 renal,4.32 µM
same,GI50,OVCAR-5 ovarian,1.61 µM
same,TGI,OVCAR-5 ovarian,3.1 µM
same,GI50,A498 renal,1.36 µM
same,TGI,A498 renal,2.69 µM
same,GI50,HS 578T breast,1.54 µM
same,TGI,HS 578T breast,3.27 µM
same,GI50,HL-60(TB) leukemia,2.28 µM
same,TGI,HL-60(TB) leukemia,4.07 µM
same,GI50,U251 CNS,1.72 µM
same,TGI,U251 CNS,3.21 µM
COc1ccc2c(c1OC)C(=O)OC2C1c2c(c([N+](=O)[O-])c3c(c2OC)OCO3)CCN1C (stereo not given),GI50,NCI/ADR-RES ovarian,> 100 µM
same,TGI,NCI/ADR-RES ovarian,> 100 µM
same,GI50,LOX IMVI melanoma,> 100 µM
same,TGI,LOX IMVI melanoma,> 100 µM
same,GI50,M14 melanoma,> 100 µM
same,TGI,M14 melanoma,> 100 µM
same,GI50,MALME-3M melanoma,> 100 µM
same,TGI,MALME-3M melanoma,> 100 µM
same,GI50,SK-MEL-5 melanoma,> 100 µM
same,TGI,SK-MEL-5 melanoma,> 100 µM
same,GI50,SK-MEL-28 melanoma,> 100 µM
same,TGI,SK-MEL-28 melanoma,> 100 µM
same,GI50,COLO 205 colon,66.6 µM
same,TGI,COLO 205 colon,> 100 µM
same,GI50,OVCAR-3 ovarian,> 100 µM
same,TGI,OVCAR-3 ovarian,> 100 µM
same,GI50,OVCAR-8 ovarian,> 100 µM
same,TGI,OVCAR-8 ovarian,> 100 µM
same,GI50,EKVX NSCLC,> 100 µM
same,TGI,EKVX NSCLC,> 100 µM
same,GI50,BT-549 breast,> 100 µM
same,TGI,BT-549 breast,> 100 µM
same,GI50,HCT-116 colon,> 100 µM
same,TGI,HCT-116 colon,> 100 µM
same,GI50,MDA-MB-435,> 100 µM
same,TGI,MDA-MB-435,> 100 µM
same,GI50,UO-31 renal,> 100 µM
same,TGI,UO-31 renal,> 100 µM
same,GI50,MDA-MB-231 breast,> 100 µM
same,TGI,MDA-MB-231 breast,> 100 µM
same,GI50,RXF 393 renal,> 100 µM
same,TGI,RXF 393 renal,> 100 µM
same,GI50,OVCAR-4 ovarian,> 100 µM
same,TGI,OVCAR-4 ovarian,> 100 µM
same,GI50,SK-MEL-2 melanoma,> 100 µM
same,TGI,SK-MEL-2 melanoma,> 100 µM
same,GI50,SNB-75 CNS,> 100 µM
same,TGI,SNB-75 CNS,> 100 µM
same,GI50,NCI-H226 lung,> 100 µM
same,TGI,NCI-H226 lung,> 100 µM
same,GI50,HCC-2998 colon,27.8 µM
same,TGI,HCC-2998 colon,> 100 µM
same,GI50,SF-539 CNS,> 100 µM
same,TGI,SF-539 CNS,> 100 µM
same,GI50,T-47D breast,54.1 µM
same,TGI,T-47D breast,> 100 µM
same,GI50,NCI-H23 lung,> 100 µM
same,TGI,NCI-H23 lung,> 100 µM
same,GI50,HCT-15 colon,> 100 µM
same,TGI,HCT-15 colon,> 100 µM
same,GI50,A549 NSCLC,> 100 µM
same,TGI,A549 NSCLC,> 100 µM
same,GI50,SF-268 CNS,> 100 µM
same,TGI,SF-268 CNS,> 100 µM
same,GI50,TK-10 renal,> 100 µM
same,TGI,TK-10 renal,> 100 µM
same,GI50,SF-295 CNS,> 100 µM
same,TGI,SF-295 CNS,> 100 µM
same,GI50,DU-145 prostate,> 100 µM
same,TGI,DU-145 prostate,> 100 µM
same,GI50,CAKI-1 renal,> 100 µM
same,TGI,CAKI-1 renal,> 100 µM
same,GI50,NCI-H460 lung,> 100 µM
same,TGI,NCI-H460 lung,> 100 µM
same,GI50,HOP-62 NSCLC,> 100 µM
same,TGI,HOP-62 NSCLC,> 100 µM
same,GI50,SW-620 colon,> 100 µM
same,TGI,SW-620 colon,> 100 µM
same,GI50,UACC-62 melanoma,> 100 µM
same,TGI,UACC-62 melanoma,> 100 µM
same,GI50,SN12C renal,> 100 µM
same,TGI,SN12C renal,> 100 µM
same,GI50,OVCAR-5 ovarian,> 100 µM
same,TGI,OVCAR-5 ovarian,> 100 µM
same,GI50,HT29 colon,28.7 µM
same,TGI,HT29 colon,> 100 µM
same,GI50,NCI-H522 lung,> 100 µM
same,TGI,NCI-H522 lung,> 100 µM
same,GI50,A498 renal,> 100 µM
same,TGI,A498 renal,> 100 µM
same,GI50,HS 578T breast,> 100 µM
same,TGI,HS 578T breast,> 100 µM
same,GI50,786-0 renal,> 100 µM
same,TGI,786-0 renal,> 100 µM
same,GI50,KM12 colon,> 100 µM
same,TGI,KM12 colon,> 100 µM
same,GI50,UACC-257 melanoma,> 100 µM
same,TGI,UACC-257 melanoma,> 100 µM
same,GI50,U251 CNS,> 100 µM
same,TGI,U251 CNS,> 100 µM
same,GI50,MCF7 breast,> 100 µM
same,TGI,MCF7 breast,> 100 µM
same,GI50,SNB-19 CNS,> 100 µM
same,TGI,SNB-19 CNS,> 100 µM
same,GI50,SK-OV-3 ovarian,> 100 µM
same,TGI,SK-OV-3 ovarian,> 100 µM
same,GI50,ACHN renal,> 100 µM
same,TGI,ACHN renal,> 100 µM
